Each structure is given as a SMILES string. Where only a bound is given, the exact number is not on record here.

Assay [1] relates to RKO, HT-29, DiFi and Caco-2 cells. Kind of assay: MTT assay with EGF stimulation. The assay is classed as cell-based, human. As to conditions: four CRC cell lines, AZ304 + EGF (20 ng/ml) vs AZ304 alone, 72 h. The procedure:
The proliferation assays in selected colorectal cancer cell lines were measured using a 3-(4,5-dimethyl thiazol-2-yl)-2,5-diphenyl tetrazolium bromide (MTT) assay. First of all, cultured cells were seeded into 96-well plates (2000–5000 cells per well). After incubation for 24 h, the cells were pretreated with DMSO or AZ304 for 1 h. Then the indicated doses of Cetuximab were added. Cells were incubated for a further 48 or 72 h. For EGF stimulating assay, cells were incubated in reduced serum medium overnight and then treated with AZ304 or AZ304 + EGF (20 ng/ml) for 72 h. Twenty microliter of MTT solution (5 mg/ml) was added to each well followed by 4 h incubation at 37 °C. The cell culture medium was removed and the cells were lysed in 200 μl dimethylsulphoxide (DMSO) and the results were measured using a microplate reader (Model 550, Bio-Rad Laboratories, Hercules, CA, USA).
Fig. 5 Anti-proliferative activity of AZ304 cannot be retained by EGF in CRC cell lines with different BRAF mutation status. a Two V600E mutant BRAF cell lines (RKO, HT-29) and two wild type BRAF cell lines (DiFi, Caco-2) were serum starved overnight and then treated with the indicated AZ304 or AZ304 + EGF for 72 h. […]

For a further assay, the system named is RKO xenografts. Kind of assay: Xenograft study (tumour growth, immunohistochemistry). The format is in vivo, athymic BALB/c nude mice. The procedure:
(§1) All in vivo experiments were performed in accordance with Institutional Review Board of China Medical University guidelines. Female 4–6 weeks old athymic BALB/c nude mice were purchased from Shanghai SLAC Laboratory Animal Centre (Shanghai, China). RKO/Caco-2 cells (1 × 10^7) in 200 μl PBS were injected subcutaneously into the right scapular region of mice. […] Tumours were measured with a caliper every 2 days, so did body weights. Tumour volume was calculated using the formula V = 1/2 (width^2 × length). Mice were terminated by CO2 inhalation when the tumour diameters reached 1.5 cm, according to the protocol filed with the Guidance of Institutional Animal Care and Use Committee of China Medical University.
(§2) Tumours were formalin-fixed, paraffin-embedded and prepared as described in our previous study for staining with haematoxylin and eosin.[19] […] The staining was evaluated by scanning the entire tissue specimen under low magnification (×10) and confirmed under high magnification (×20 and ×40). The protein expression was visualised and classified based on the percentage of positive cells and the intensity of staining. From each section, five visual fields were randomly selected. The degree of protein expression was based on the percentage of positive cells and the intensity of staining. Staining intensity was scored as 0 (no staining), 1 (low staining), 2 (intermediate staining), and 3 (high staining). For the staining area, ≤5%, 5–25%, 26–50, 51–75% >75% were recorded as 0, 1, 2, 3 and 4 points, respectively. Histological score = staining intensity × staining area. A score 0 was classified as negative (−), 1–4 points as weakly positive (+), 6–12 points as a strong positive (++). Final scores were assigned by two independent pathologists.
(§3) Student’s t-tests were used for statistical analyses. Data are plotted as mean ± SD. […] Tumours were harvested 4 h after dosing on day 10

The subject of the next assay is Caco-2 xenografts. The assay is described as above. The format is in vivo, athymic BALB/c nude mice. The procedure:
as §1, §2, §3

For a further assay, the target named is JAK2 (Homo sapiens, UniProt O60674). Put plainly: AlphaScreen kinase assay. The format is biochemical. As to conditions: ATP Km. The procedure: (§4) For RAF kinases, detailed assay information was described in ref.[18] Briefly, the kinase activity of BRAF WT, BRAF V600E, or CRAF was measured using an AlphaScreen assay (Perkin Elmer, MA) monitoring MEK1/2 phosphorylation at Ser217/221. For CDK2 and CDK4 kinases, activity was also measured by AlphaScreen, monitoring phosphorylation of biotin Rb peptide at Ser780. Similarly, MAP3K7, CSF1R and JAK2 kinase activity was measured by phosphorylation of their biotinylated substrates MKK6 kinase dead protein at Ser271/Thr275, or tyrosine phosphorylation of pEY or Tyk2 Tyr1054/1055 peptides, respectively. CSK, IGF1R, EGFR, FGFR1 and SRC kinase activity was measured using a sandwich ELISA detecting phosphorylated poly EAY peptide with a HRP conjugated phosphotyrosine antibody and TMB substrate, while p38 kinase activity was measured by monitoring phosphorylation of MBP protein with radiolabeled ^33P-ATP in a filter binding format. All assays were screened under respective ATP Km conditions and inhibitor IC50s were derived from either 5 (RAF kinases, CDK2, CDK4, MAP3K7, JAK2), 10 (CSK, IGF1R, EGFR, FGFR1, SRC) or 11 (p38, CSF1R) point compound dose response.
Chain of JAK2 (O60674 whole entry, species assumed): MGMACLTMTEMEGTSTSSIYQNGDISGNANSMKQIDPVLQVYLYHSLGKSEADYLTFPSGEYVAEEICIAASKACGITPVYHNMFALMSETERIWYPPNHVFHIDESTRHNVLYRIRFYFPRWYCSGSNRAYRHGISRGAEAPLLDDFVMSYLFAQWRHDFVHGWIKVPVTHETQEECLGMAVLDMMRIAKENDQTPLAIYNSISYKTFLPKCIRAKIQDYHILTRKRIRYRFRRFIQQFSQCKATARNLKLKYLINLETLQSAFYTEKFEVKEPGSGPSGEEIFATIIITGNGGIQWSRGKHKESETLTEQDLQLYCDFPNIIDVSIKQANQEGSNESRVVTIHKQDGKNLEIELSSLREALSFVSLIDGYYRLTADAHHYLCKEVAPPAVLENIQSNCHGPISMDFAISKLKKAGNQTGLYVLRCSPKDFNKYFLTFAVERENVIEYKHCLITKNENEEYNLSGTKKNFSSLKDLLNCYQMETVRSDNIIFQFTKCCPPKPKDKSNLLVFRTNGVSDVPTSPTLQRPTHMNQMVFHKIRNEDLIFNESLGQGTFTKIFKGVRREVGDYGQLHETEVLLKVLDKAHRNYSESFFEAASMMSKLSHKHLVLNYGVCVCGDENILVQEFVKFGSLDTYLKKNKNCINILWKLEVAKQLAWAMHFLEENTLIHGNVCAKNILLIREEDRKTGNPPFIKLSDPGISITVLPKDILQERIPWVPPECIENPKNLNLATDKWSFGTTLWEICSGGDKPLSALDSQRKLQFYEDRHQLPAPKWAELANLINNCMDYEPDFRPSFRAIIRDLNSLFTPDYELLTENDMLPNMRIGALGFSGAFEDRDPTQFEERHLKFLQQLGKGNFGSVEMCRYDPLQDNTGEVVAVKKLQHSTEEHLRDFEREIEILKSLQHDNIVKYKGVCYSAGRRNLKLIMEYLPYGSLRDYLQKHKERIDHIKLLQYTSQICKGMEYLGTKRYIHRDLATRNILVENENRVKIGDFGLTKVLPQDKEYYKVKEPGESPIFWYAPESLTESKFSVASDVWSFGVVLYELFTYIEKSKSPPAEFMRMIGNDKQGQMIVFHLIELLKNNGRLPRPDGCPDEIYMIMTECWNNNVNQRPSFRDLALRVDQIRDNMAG
In general terms: Bead proximity is the source of the signal in Alpha formats.

Another assay deals with CSF1R (Homo sapiens, UniProt P07333). Kind of assay: AlphaScreen kinase assay. The format is biochemical. Conditions: ATP Km. The procedure: as §4
Chain of CSF1R (P07333 20-972, species assumed): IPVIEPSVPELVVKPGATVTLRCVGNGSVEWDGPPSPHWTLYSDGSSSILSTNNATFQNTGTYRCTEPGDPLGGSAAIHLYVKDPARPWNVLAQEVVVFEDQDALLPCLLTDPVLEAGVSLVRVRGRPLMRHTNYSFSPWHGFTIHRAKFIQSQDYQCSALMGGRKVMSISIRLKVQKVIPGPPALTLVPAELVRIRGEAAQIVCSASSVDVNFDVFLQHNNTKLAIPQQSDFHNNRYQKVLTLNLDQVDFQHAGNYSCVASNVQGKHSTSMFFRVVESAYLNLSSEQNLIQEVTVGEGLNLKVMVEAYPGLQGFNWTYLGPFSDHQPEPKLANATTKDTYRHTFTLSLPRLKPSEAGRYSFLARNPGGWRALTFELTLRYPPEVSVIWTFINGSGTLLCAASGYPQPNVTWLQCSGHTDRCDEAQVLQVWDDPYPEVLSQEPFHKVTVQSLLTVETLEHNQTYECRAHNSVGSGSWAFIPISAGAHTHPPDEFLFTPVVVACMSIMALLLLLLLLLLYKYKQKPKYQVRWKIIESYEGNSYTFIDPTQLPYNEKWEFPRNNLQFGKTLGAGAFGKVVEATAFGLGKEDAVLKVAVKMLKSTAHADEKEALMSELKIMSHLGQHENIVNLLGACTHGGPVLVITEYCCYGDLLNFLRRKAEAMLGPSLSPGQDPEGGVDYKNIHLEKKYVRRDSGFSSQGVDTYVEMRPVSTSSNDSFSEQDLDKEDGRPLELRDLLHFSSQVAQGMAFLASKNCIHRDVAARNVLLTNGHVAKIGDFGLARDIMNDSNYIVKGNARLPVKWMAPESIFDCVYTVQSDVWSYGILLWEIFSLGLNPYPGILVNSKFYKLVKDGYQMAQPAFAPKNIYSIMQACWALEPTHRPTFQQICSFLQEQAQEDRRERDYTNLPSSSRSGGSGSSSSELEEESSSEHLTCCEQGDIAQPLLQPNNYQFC
The target in a further assay is MAP3K7 (Homo sapiens, UniProt O43318). Kind of assay: AlphaScreen kinase assay. The format is biochemical. Conditions: ATP Km. The procedure: as §4
Chain of MAP3K7 (O43318 whole entry, species assumed): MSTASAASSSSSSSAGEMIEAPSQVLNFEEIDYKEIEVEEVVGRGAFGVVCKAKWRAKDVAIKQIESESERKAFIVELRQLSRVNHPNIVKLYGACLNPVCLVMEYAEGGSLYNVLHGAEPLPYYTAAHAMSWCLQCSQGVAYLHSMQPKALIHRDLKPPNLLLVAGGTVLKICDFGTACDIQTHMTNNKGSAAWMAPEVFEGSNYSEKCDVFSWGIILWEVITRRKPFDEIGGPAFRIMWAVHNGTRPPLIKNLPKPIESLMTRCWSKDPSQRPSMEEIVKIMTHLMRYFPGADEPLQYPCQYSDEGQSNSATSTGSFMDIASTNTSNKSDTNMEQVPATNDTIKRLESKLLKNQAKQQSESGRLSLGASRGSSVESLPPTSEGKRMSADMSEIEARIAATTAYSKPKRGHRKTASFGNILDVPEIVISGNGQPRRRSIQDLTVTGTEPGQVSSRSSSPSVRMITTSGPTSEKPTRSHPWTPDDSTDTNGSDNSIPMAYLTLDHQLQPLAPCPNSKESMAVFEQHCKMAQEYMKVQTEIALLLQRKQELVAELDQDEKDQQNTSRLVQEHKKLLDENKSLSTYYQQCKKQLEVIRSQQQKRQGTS
Chain of MAP3K7 (Q15750 whole entry partner, species assumed): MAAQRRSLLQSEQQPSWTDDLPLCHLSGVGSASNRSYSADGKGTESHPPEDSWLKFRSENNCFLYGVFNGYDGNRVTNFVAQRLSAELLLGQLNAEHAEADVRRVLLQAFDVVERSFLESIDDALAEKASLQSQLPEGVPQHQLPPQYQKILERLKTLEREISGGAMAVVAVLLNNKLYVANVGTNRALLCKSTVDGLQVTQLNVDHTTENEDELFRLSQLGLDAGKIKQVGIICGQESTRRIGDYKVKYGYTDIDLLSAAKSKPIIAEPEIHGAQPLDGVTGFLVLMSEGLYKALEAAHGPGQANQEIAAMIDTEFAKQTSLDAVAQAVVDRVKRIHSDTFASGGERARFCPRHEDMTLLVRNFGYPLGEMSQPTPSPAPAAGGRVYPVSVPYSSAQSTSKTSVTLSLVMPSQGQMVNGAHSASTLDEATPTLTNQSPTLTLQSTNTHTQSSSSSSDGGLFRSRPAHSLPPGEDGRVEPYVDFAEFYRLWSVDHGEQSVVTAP
Where [2] appears, read: RKO xenograft tumours, day 10, 4 h after dosing, score = staining intensity × staining area.
[3] abbreviates: Caco-2 xenograft tumours, day 10, 4 h after dosing, score = staining intensity × staining area.

Usually IC50 stands for the concentration that inhibits the measured activity by half. Low readings indicate greater potency in that assay, high ones weaker potency in that assay. For `COc1ccc2c(Nc3cc(NC(=O)c4cccc(C(C)(C)C#N)c4)ccc3C)ncnc2c1` [AZ304], the “change of anti-proliferative effects after combined treatment with EGF” value in assay [1] is “no significant reduction of anti-proliferative effects”. In addition, the Ki67 histological score in the assay with RKO xenografts (setting [2]) is 4.8 ±1.10; with Caco-2 xenografts (setting [3]) it was 3.2 ±0.84. The p-AKT histological score in the assay on RKO xenografts (setting [2]) was 4.2 ±2.28; in the assay on Caco-2 xenografts (setting [3]) it was 6.8 ±1.10. Further, the p-EGFR histological score in the assay on RKO xenografts (setting [2]) came out at 10 ±1.87; in the assay with Caco-2 xenografts (setting [3]), 10.6 ±1.95. In addition, the p-ERK histological score with RKO xenografts (setting [2]) is reported as 3.2 ±1.10; in the assay on Caco-2 xenografts (setting [3]) it was 4.8 ±1.10. The tumour growth result in the assay on RKO xenografts (RKO xenograft, AZ304 10 mg/kg oral twice daily, Cetuximab 40 mg/kg i.p. twice per week, 10 days, vs vehicle) is listed as “reduced tumour growth”; in the assay on Caco-2 xenografts (Caco-2 xenograft, AZ304 10 mg/kg oral twice daily, Cetuximab 40 mg/kg i.p. twice per week, 10 days, vs vehicle), “reduced tumour growth”. For the same compound, the IC50 on JAK2 was > 10 µM; on CSF1R, 0.035 µM; on MAP3K7, 6.4 µM.

The values are drawn from publication PMC5988692, “AZ304, a novel dual BRAF inhibitor, exerts anti-tumour effects in colorectal cancer independently of BRAF genetic status” (British Journal of Cancer, 2018).
